Measured values as given in patent US20120101086A1, “THIADIAZOLE DERIVATIVES AND THEIR USE FOR THE TREATMENT OF DISORDERS MEDIATED BY S1P1 RECEPTORS” (GLAXO GROUP LIMITED, priority 2009, published 2012).
Where a name gives a salt, the structure may show the parent alone.

Key:
[1] = target: T1, S1P1 (Homo sapiens, UniProt P21453); experiment: S1P-1 β-Arrestin recruitment assay; format: cell-based; design: host or cells: PathHunter CHO-K1 EDG1 β-Arrestin cell line; details: PathHunter CHO-K1 EDG1 β-Arrestin cell line, chemi-luminescence
T1 sequence (P21453 whole entry, the tested form may be a part): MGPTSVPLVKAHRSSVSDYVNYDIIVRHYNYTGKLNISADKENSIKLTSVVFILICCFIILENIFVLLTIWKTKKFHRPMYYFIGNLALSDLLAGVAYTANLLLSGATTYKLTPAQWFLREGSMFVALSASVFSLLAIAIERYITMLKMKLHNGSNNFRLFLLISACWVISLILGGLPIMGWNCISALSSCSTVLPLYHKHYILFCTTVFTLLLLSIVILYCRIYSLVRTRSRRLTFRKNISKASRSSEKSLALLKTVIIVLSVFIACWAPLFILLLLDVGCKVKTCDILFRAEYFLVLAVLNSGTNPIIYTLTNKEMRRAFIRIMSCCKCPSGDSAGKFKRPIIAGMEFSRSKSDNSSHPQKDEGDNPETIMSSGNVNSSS
Procedure: β-Arrestin recruitment assays were carried out using the PathHunter CHO-K1 EDG1 β-Arrestin cell line (DiscoveRx Corporation) in a chemi-luminescence detection assay. This cell line stably expresses β-Arrestin 2 and S1P1 fused to complementing portions of β-galactosidase (‘EA’ and ‘pro-link’, respectively) which associate upon Arrestin recruitment to form functional β-galactosidase enzyme.
Cells were grown to 80% confluency in Growth Medium (F12 nutrient HAMS supplemented with 10% heat-inactivated USA FBS, 1% L-glutamax, 800 m/ml Geneticin and 300 m/ml Hygromycin). Cells were harvested from the flask using Enzyme Free Cell Dissociation Buffer (Gibco) and washed from flasks with Optimem solution (Gibco). Cells were then centrifuged at 1000 rpm for 2-3 min and resuspended in Assay Buffer (Prepared from Sigma kit H1387 supplemented with 20 ml/L HEPES, 4.7 ml/L NaHCO3, 0.1% pluronic acid F-68 solution, 0.1% BSA and adjusted to pH 7.4 using sodium hydroxide at 1×10^6 cells/ml. Cells were dispensed into assay plates containing compounds (100n1/well of a solution of test compound in 100% DMSO) at 1×10^4 cells/well and incubated at 37° C./5% CO2 for 90 min followed by 15 min at room temperature. 5 μl detection mix (1 part Galacton Star, 5 parts Emerald II, 19 parts Assay Buffer; DiscoveRx) were added per well and the plates incubated at room temperature for 60 min. Luminescence was quantified using a Viewlux plate reader.

[2] = target: T1, S1P1; experiment: S1P1 GTPγS assay; format: biochemical; design: expressed in transfected cells; host or cells: RH7777 cells (membranes); details: tested in one of the above S1P1 assays (two protocols)
Procedure: The potencies and efficacies of the compounds of this invention for the S1P1 receptor can be determined by GTPγS assay performed on the human cloned receptor as described herein. […] All steps were performed at 4° C. Cells were homogenised within a glass Waring blender for 2 bursts of 15 secs in 200 mls of buffer (50 mM HEPES, 1 mM leupeptin, 25 m/ml bacitracin, 1 mM EDTA, 1 mM PMSF, 2 μM pepstatin A). The blender was plunged into ice for 5 mins after the first burst and 10-40 mins after the final burst to allow foam to dissipate. The material was then spun at 500 g for 20 mins and the supernatant spun for 36 mins at 48,000 g. The pellet was resuspended in the same buffer as above but without PMSF and pepstatin A. The material was then forced through a 0.6 mm needle, made up to the required volume, (usually ×4 the volume of the original cell pellet), aliquoted and stored frozen at—80° C. S1P1 expressing RH7777 membranes (1.5 μg/well) membranes (1.5 μg/well) were homogenised by passing through a 23G needle. These were then adhered to WGA-coated SPA beads (0.125 mg/well) in assay buffer (HEPES 20 mM, MgCl2, 10 mM, NaCl 100 mM and pH adjusted to 7.4 using KOH 5M). GDP 10 μM FAC and saponin 90 μg/ml FAC were also added After 30 minutes precoupling on ice, the bead and membrane suspension was dispensed into white Greiner polypropylene LV 384-well plates (5 μl/well), containing 0.1 μl of compound. 5 μl/well [^35S]-GTPγS (0.5 nM for S1P1 or 0.3 nM for S1P3 final radioligand concentration) made in assay buffer was then added to the plates. The final assay cocktail (10.1 μl) was then sealed, spun on a centrifuge, then read immediately on a Viewlux instrument. Alternatively, after 30 minutes precoupling on ice, the bead and membrane suspension was mixed with ^35S]-GTPγS (0.5 nM final radioligand concentration) in assay buffer (HEPES 20 mM, MgCl2 10 mM, NaCl 100 mM and pH adjusted to 7.4 using KOH 5M) in a 1:1 ratio. The bead, membrane and radioligand suspension was dispensed into white Greiner polypropylene low volume 384-well plates (10 μl/well), containing 0.1 μl of a solution of test compound in 100% DMSO. The final assay cocktail (10.1 μl) was then sealed, spun on a centrifuge, then read immediately on a Viewlux instrument.

[3] = tested on: circulating lymphocytes; details: animals and man; cited from earlier work
[4] = clinical studies, first 24 hours of treatment; cited from earlier work

For `Cc1c2c(nn1-c1nnc(-c3ccc(OC(C)C)c(Cl)c3)s1)CCN(CCC(=O)O)C2` [Example 2, 3-[2-(5-{3-Chloro-4-[(1-methylethyl)oxy]phenyl}-1,3,4-thiadiazol-2-yl)-3-methyl-2,4,6,7-tetrahydro-5H-pyrazolo[4,3-c]pyridin-5-yl]propanoic acid], the EC50 [1] was at most 10 nM and the EC50 [2] was at most 10 nM.
`Cc1c2c(nn1-c1nnc(-c3ccc(OC(C)C)c(C#N)c3)s1)CCNC2` [Example 3, 2-[(1-Methylethyl)oxy]-5-[5-(3-methyl-4,5,6,7-tetrahydro-2H-pyrazolo[4,3-c]pyridin-2-yl)-1,3,4-thiadiazol-2-yl]benzonitrile] showed an EC50 [1] of at most 100 nM.
With `Cc1c2c(nn1-c1nnc(-c3ccc(OC(C)C)c(C#N)c3)s1)CCN(CCC(=O)O)C2` [Example 4, 3-[2-(5-{3-Cyano-4-[(1-methylethyl)oxy]phenyl}-1,3,4-thiadiazol-2-yl)-3-methyl-2,4,6,7-tetrahydro-5H-pyrazolo[4,3-c]pyridin-5-yl]propanoic acid trifluoroacetic acid salt] the EC50 [1] was at most 10 nM.
`Cc1c2c(nn1-c1nnc(-c3ccc(OC(C)C)c(C#N)c3)s1)CCN(CCC(N)=O)C2` [Example 5, 3-[2-(5-{3-Cyano-4-[(1-methylethyl)oxy]phenyl}-1,3,4-thiadiazol-2-yl)-3-methyl-2,4,6,7-tetrahydro-5H-pyrazolo[4,3-c]pyridin-5-yl]propanamide] showed an EC50 [1] of at most 10 nM.
`CC(C)Oc1ccc(-c2nnc(-n3cc4c(n3)CCN(CCCC(=O)O)C4)s2)cc1Cl` [Example 7, 4-[2-(5-{3-Chloro-4-[(1-methylethyl)oxy]phenyl}-1,3,4-thiadiazol-2-yl)-2,4,6,7-tetrahydro-5H-pyrazolo[4,3-c]pyridin-5-yl]butanoic acid] gave an EC50 [1] of at most 10 nM and an EC50 [2] of at most 100 nM.
Compound `CC(C)Oc1ccc(-c2nnc(-n3cc4c(n3)CCN(CCC(=O)O)C4)s2)cc1Cl` [Example 8, 3-[2-(5-{3-Chloro-4-[(1-methylethyl)oxy]phenyl}-1,3,4-thiadiazol-2-yl)-2,4,6,7-tetrahydro-5H-pyrazolo[4,3-c]pyridin-5-yl]propanoic acid] has an EC50 [1] of at most 10 nM and an EC50 [2] of at most 100 nM.
`CC(C)Oc1ccc(-c2nnc(-n3cc4c(n3)CCN(CCC(=O)O)C4)s2)cc1C#N` [Example 12, 3-[2-(5-{3-Cyano-4-[(1-methylethyl)oxy]phenyl}-1,3,4-thiadiazol-2-yl)-2,4,6,7-tetrahydro-5H-pyrazolo[4,3-c]pyridin-5-yl]propanoic acid] showed an EC50 [1] of at most 10 nM and an EC50 [2] of at most 100 nM.
`CC(C)Oc1ccc(-c2nnc(-n3cc4c(n3)CCN(CCCC(=O)O)C4)s2)cc1C#N` [Example 13, 4-[2-(5-{3-Cyano-4-[(1-methylethyl)oxy]phenyl}-1,3,4-thiadiazol-2-yl)-2,4,6,7-tetrahydro-5H-pyrazolo[4,3-c]pyridin-5-yl]butanoic acid] gave an EC50 [1] of at most 10 nM.
Compound `CC(C)Oc1ccc(-c2nnc(-n3ncc4c3CCN(CCC(=O)O)C4)s2)cc1Cl` [Example 15, 3-[1-(5-{3-Chloro-4-[(1-methylethyl)oxy]phenyl}-1,3,4-thiadiazol-2-yl)-1,4,6,7-tetrahydro-5H-pyrazolo[4,3-c]pyridin-5-yl]propanoic acid] has an EC50 [1] of at most 100 nM.
With `Cc1c2c(nn1-c1nnc(-c3ccc(OC(C)C)c(C#N)c3)s1)CCN(C(CO)CO)C2` [Example 25, 5-(5-{5-[2-hydroxy-1-(hydroxymethyl)ethyl]-3-methyl-4,5,6,7-tetrahydro-2H-pyrazolo[4,3-c]pyridin-2-yl}-1,3,4-thiadiazol-2-yl)-2-[(1-methylethyl)oxy]benzonitrile] the EC50 [1] was at most 10 nM.
In the case of `Cc1c2c(nn1-c1nnc(-c3ccc(OC(C)C)c(C#N)c3)s1)CCN(C[C@H](O)CO)C2` [Example 26, 5-(5-{5-[(2S)-2,3-dihydroxypropyl]-3-methyl-4,5,6,7-tetrahydro-2H-pyrazolo[4,3-c]pyridin-2-yl}-1,3,4-thiadiazol-2-yl)-2-[(1-methylethyl)oxy]benzonitrile], the EC50 [1] is reported as at most 10 nM.
`Cc1c2c(nn1-c1nnc(-c3ccc(OC(C)C)c(C#N)c3)s1)CCN(C(=O)CN[C@H](C)CO)C2` [Example 30, 5-[5-(5-{N—[(1R)-2-hydroxy-1-methylethyl]glycyl}-3-methyl-4,5,6,7-tetrahydro-2H-pyrazolo[4,3-c]pyridin-2-yl)-1,3,4-thiadiazol-2-yl]-2-[(1-methylethyl)oxy]benzonitrile] showed an EC50 [1] of at most 10 nM.
Compound `Cc1c2c(nn1-c1nnc(-c3ccc(OC(C)C)c(C#N)c3)s1)CCN(C(=O)CNC[C@H](C)O)C2` [Example 33, 5-[5-(5-{N-[(2S)-2-hydroxypropyl]glycyl}-3-methyl-4,5,6,7-tetrahydro-2H-pyrazolo[4,3-c]pyridin-2-yl)-1,3,4-thiadiazol-2-yl]-2-[(1-methylethyl)oxy]benzonitrile] has an EC50 [1] of at most 100 nM.
With `Cc1c2c(nn1-c1nnc(-c3ccc(OC(C)C)c(C#N)c3)s1)CCN(C(=O)CNC[C@H](O)CO)C2` [Example 34, 5-[5-(5-{N-[(2S)-2,3-dihydroxypropyl]glycyl}-3-methyl-4,5,6,7-tetrahydro-2H-pyrazolo[4,3-c]pyridin-2-yl)-1,3,4-thiadiazol-2-yl]-2-[(1-methylethyl)oxy]benzonitrile] the EC50 [1] was at most 10 nM.
Compound `Cc1c2c(nn1-c1nnc(-c3ccc(OC(C)C)c(C#N)c3)s1)CCN(C(=O)CNCCO)C2` [Example 35, 5-(5-{5-[N-(2-hydroxyethyl)glycyl]-3-methyl-4,5,6,7-tetrahydro-2H-pyrazolo[4,3-c]pyridin-2-yl}-1,3,4-thiadiazol-2-yl)-2-[(1-methylethyl)oxy]benzonitrile] has an EC50 [1] of at most 10 nM.
Compound `Cc1c2c(nn1-c1nnc(-c3ccc(OC(C)C)c(C#N)c3)s1)CCN(C(=O)CNC(CO)CO)C2` [Example 36, 5-[5-(5-{N-[2-hydroxy-1-(hydroxymethyl)ethyl]glycyl}-3-methyl-4,5,6,7-tetrahydro-2H-pyrazolo[4,3-c]pyridin-2-yl)-1,3,4-thiadiazol-2-yl]-2-[(1-methylethyl)oxy]benzonitrile] has an EC50 [1] of at most 10 nM.
Work on `COC(=O)[C@H](O)CN1CCc2nn(-c3nnc(-c4ccc(OC(C)C)c(Cl)c4)s3)c(C)c2C1` [Example 41, methyl (2R)-3-[2-(5-{3-chloro-4-[(1-methylethyl)oxy]phenyl}-1,3,4-thiadiazol-2-yl)-3-methyl-2,4,6,7-tetrahydro-5H-pyrazolo[4,3-c]pyridin-5-yl]-2-hydroxypropanoate] yielded an EC50 [1] of at most 10 nM.
Compound `Cc1c2c(nn1-c1nnc(-c3ccc(OC(C)C)c(Cl)c3)s1)CCN(C[C@H](O)CO)C2` [Example 42, (2S)-3-[2-(5-{3-chloro-4-[(1-methylethyl)oxy]phenyl}-1,3,4-thiadiazol-2-yl)-3-methyl-2,4,6,7-tetrahydro-5H-pyrazolo[4,3-c]pyridin-5-yl]-1,2-propanediol formic acid salt] has an EC50 [1] of at most 100 nM.
For `CCCCCCCCc1ccc(CCC(N)(CO)CO)cc1` [FTY720], the “effect on circulating lymphocytes” value [3] is listed as “reduce circulating lymphocytes” and the bradycardia [4] is listed as “results in bradycardia”.
